Experimental data: paper PMC6268179, “Synthesis, Docking Studies and Biological Evaluation of Benzo[b]thiophen-2-yl-3-(4-arylpiperazin-1-yl)-propan-1-one Derivatives on 5-HT1A Serotonin Receptors” (Molecules, 2012)

How the values were obtained:
[1] = biological target: T1, 5-HT1A receptor (Rattus norvegicus, UniProt P19327); test: radioligand displacement of [3H]-8-OH-DPAT, single dose […]
T1 construct: gene Htr1a; rat cerebral cortex membranes
T1 sequence (P19327 1-422): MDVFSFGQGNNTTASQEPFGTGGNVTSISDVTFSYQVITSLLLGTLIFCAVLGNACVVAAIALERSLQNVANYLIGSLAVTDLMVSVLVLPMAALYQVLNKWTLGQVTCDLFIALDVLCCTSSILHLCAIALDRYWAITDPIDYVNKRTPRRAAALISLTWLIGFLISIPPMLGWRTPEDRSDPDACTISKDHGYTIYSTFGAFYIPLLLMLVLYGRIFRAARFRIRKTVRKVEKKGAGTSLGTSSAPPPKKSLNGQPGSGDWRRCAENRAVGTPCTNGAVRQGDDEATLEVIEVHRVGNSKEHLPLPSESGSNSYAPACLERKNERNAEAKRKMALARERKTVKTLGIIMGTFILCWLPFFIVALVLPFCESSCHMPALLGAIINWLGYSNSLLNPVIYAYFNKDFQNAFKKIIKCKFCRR

[2] = biological target: T1, 5-HT1A receptor; test: radioligand displacement of [3H]-8-OH-DPAT, dose-response; format: binding

Structure (SMILES) | inhibition at 1 µM [1] [%] | Ki [2] [nM]
COc1ccccc1N1CCN(CCC(=O)c2cc3ccccc3s2)CC1 [7d, 3-[4-(2-Methoxyphenyl)piperazin-1-yl]-1-(benzo[b]thiophen-2-yl)-1-propanone] | 52 ± 7 | 
O=C(CCN1CCN(c2ccccn2)CC1)c1cc2ccccc2s1 [7e, 1-(benzo[b]thiophen-2-yl)-3-(4-(pyridin-2-yl)piperazin-1-yl)propan-1-one] |  | 2300
